These results are taken from patent publication US20230138414A1, “METHODS AND COMPOSITIONS FOR PREVENTING AND TREATING MYOPIA” (The Trustees of Columbia University in the City of New York, priority 2020, published 2023).

The test system of data set [1] is myopia development. The following applies: chickens and guinea pigs; cited from earlier work.
Data set [2] relates to progression of myopia in children. The conditions noted are these: daily oral 400 mg (∼15 mg/kg), cited from earlier work.
In a further data set the test system is sclera. The conditions noted are these: rabbit, in vivo; cited from earlier work.
The next data set deals with induced myopia. The conditions noted are these: 30 mg/kg dose, rabbits; cited from earlier work.
The subject of data set [3] is myopia. The conditions noted are these: 300 mg/kg dose, guinea pigs; cited from earlier work.
Data set [4] concerns myopia. The following applies: monkeys; effect strongly depended on the genetic background; cited from earlier work.
The test system of data set [5] is mice with experimentally induced myopia. The data set can be described thus: Lens-induced myopia (-25 D lens over right eye, 3 weeks), drug in diet. The format is in vivo, C57BL/6J (B6) mice. The following applies: for interocular difference in refractive error between lens-treated eyes and control eyes: after 3 weeks of lens treatment, control group -10.47 ± 3.02 D; for inhibition (suppression) of myopia: systemic oral administration, 3 weeks, -25 D lens, B6 mice. From the text:
Myopia was induced in 24-days old C57BL/6J (B6) mice by attaching -25 diopter (D) lens placed in a plastic 3D-printed frame over right eye. The contralateral eye served as control. Mice were raised with lenses for 3 weeks (FIG. 1A). After 3 weeks, the lenses were removed and refractive errors in the lens-treated eyes and contralateral control eyes were compared. Lens-treatment produced myopia in the lens-treated eyes (average refractive error = -14.6 ± 0.3 D) relative to the control eyes (average refractive error = +0.6 ± 0.6 D) (FIG. 1B); the interocular difference in refractive error (-15.2 ± 0.7 D) was highly significant (P < 0.0001). […] The diameter of lens-treated eyes was on average 65 ± 8 µm larger (P < 0.0001; FIG. 1C), and the vitreous chamber depth in the lens-treated eyes was 61 ± 4 µm longer (P < 0.0001; FIG. 1C), than that of the control fellow eyes.
The experimental group of B6 mice was raised with -25 D lenses over right eye (as described in Example 1) on a diet supplemented with 5 mg/kg of levocabastine hydrochloride for 3 weeks, while the control group of B6 mice with -25 D lenses over right eye was raised on a regular non-medicated diet. The interocular difference in refractive error between lens-treated eyes and control eyes in the levocabastine-treated animals after 3 weeks of lens treatment was +0.55 ± 2.32 D versus -10.47 ± 3.02 D in the control group, P-value = 2.83 × 10^-10.
The experimental group of B6 mice was raised with -25 D lenses over right eye on a diet supplemented with 1 mg/kg of fenoterol hydrobromide for 3 weeks, while the control group of B6 mice with -25 D lenses over right eye was raised on a regular non-medicated diet. The interocular difference in refractive error between lens-treated eyes and control eyes in the fenoterol-treated animals after 3 weeks of lens treatment was -0.8 ± 1.80 D versus -10.47 ± 3.02 D in the control group, P = 2.47 × 10^-08.
The experimental group of B6 mice was raised with -25 D lenses over right eye on a diet supplemented with 1 mg/kg of trichostatin A for 3 weeks, while the control group of B6 mice with -25 D lenses over right eye was raised on a regular non-medicated diet. The interocular difference in refractive error between lens-treated eyes and control eyes in the trichostatin-A-treated animals after 3 weeks of lens treatment was 0.48 ± 1.46 D versus -10.47 ± 3.02 D in the control group, P = 4.43 × 10^-10.
The experimental group of B6 mice was raised with -25 D lenses over right eye on a diet supplemented with 0.3 mg/kg of fingolimod phosphate for 3 weeks, while the control group of B6 mice with -25 D lenses over right eye was raised on a regular non-medicated diet. The interocular difference in refractive error between lens-treated eyes and control eyes in the fingolimod-treated animals after 3 weeks of lens treatment was -0.02 ± 1.58 D versus -10.47 ± 3.02 D in the control group, P = 4.63 × 10^-9.
The experimental group of B6 mice was raised with -25 D lenses over right eye on a diet supplemented with 20 mg/kg of berberine chloride for 3 weeks, while the control group of B6 mice with -25 D lenses over right eye was raised on a regular non-medicated diet. The interocular difference in refractive error between lens-treated eyes and control eyes in the berberine-treated animals after 3 weeks of lens treatment was -5.15 ± 1.22 D versus -10.47 ± 3.02 D in the control group, P = 1.31 × 10^-4.
The experimental group of B6 mice was raised with -25 D lenses over right eye on a diet supplemented with 10 mg/kg of S-methyl-L-thiocitrulline hydrochloride for 3 weeks, while the control group of B6 mice with -25 D lenses over right eye was raised on a regular non-medicated diet. The interocular difference in refractive error between lens-treated eyes and control eyes in the S-methyl-L-thiocitrulline-treated animals after 3 weeks of lens treatment was -0.28 ± 2.17 D versus -10.47 ± 3.02 D in the control group, P = 6.73 × 10^-9.

In data set [6] the test system is myopia development. The following applies: chicken, mouse and non-human primates; cited from earlier work.
The subject of data set [7] is progression of myopia. The following applies: cited from earlier work.
Data set [8] relates to progression of myopia. The conditions noted are these: 1-year period, cited from earlier work.
Data set [9] has as its system development of ocular components and emmetropization. The following applies: juvenile primates; cited from earlier work.
The subject of data set [10] is progression of myopia in children. The conditions noted are these: cited from earlier work.
The subject of data set [11] is experimentally induced myopia. The following applies: chickens; cited from earlier work.
Data set [12] concerns myopia. The following applies: guinea pigs; cited from earlier work.
Another data set has as its system mouse model of myopia. The conditions noted are these: cited from earlier work.
The test system of another data set is experimental myopia. The following applies: tree shrews, rhesus monkeys, and chickens; cited from earlier work.
Data set [13] relates to progression of myopia. The conditions noted are these: guinea pigs; cited from earlier work.
Data set [14] concerns progression of myopia in children. The following applies: cited from earlier work. The source holds these as a separate data set.

The structures appear in SMILES notation. Where a name gives a salt, the structure may show the parent alone. Read-outs that look alike come from different tables or passages of the source.

Take `CCCCP(=O)(O)C1CCC(N)C1` (stereo not shown) [3-ACPBPA, (3-aminocyclopentanyl) butylphosphinic acid]: in the data set with myopia development [1], the “suppression of myopia development” value is “suppress myopia development”.
In the case of `Cn1cnc2[nH]c(=O)[nH]c(=O)c21` [7-MX, 7-methylxanthine], the “effect on myopia progression” value in [2] (subjects with high rates of progression) is listed as “no effect”. Besides, the suppression of myopia result is reported as “approximately 22%” in data set [2] (subjects with slow progressing myopia), 49% with myopia [3] and “can suppress myopia in primates” with myopia [4]. Moreover, the “changes in the sclera” value with sclera was “thickening of the sclera and an increase in the diameter of the scleral collagen fibrils”. In addition, in the data set on induced myopia, the “reduction of the extent of induced myopia” value was “approximately 67%”.
As for `NCCCP(=O)(O)CC1CCCCC1` [CGP46381], the “suppression of myopia development” value in the data set with myopia development [1] is “suppress myopia development”.
For `[H]/N=C(\NCCC[C@H](N)C(=O)O)SC` [S-methyl-L-thiocitrulline hydrochloride], the “interocular difference in refractive error between lens-treated eyes and control eyes” value in data set [5] (diet supplemented with 10 mg/kg) is given as -0.28 ± 2.17 D. Further, the “inhibition (suppression) of myopia” value in [5] (10 mg/kg in diet) was “approximately 97%”.
As to `CP(=O)(O)C1=CCNCC1` [TPMPA, (1,2,5,6-tetrahydropyridin-4yl) methylphosphinic acid], the “suppression of myopia development” value in the data set on myopia development [1] was “suppress myopia development”.
On to `CN1CCc2cccc3c2[C@H]1Cc1ccc(O)c(O)c1-3` [apomorphine], for which, in the data set on myopia development [6], the “inhibition of myopia development” value is given as “inhibit myopia development”.
With `CN1[C@@H]2CC[C@H]1C[C@@H](OC(=O)C(CO)c1ccccc1)C2` (stereo partly shown) [atropine], the “retardation of the progression of myopia” value in the data set with progression of myopia [7] (1% atropine eye drops, 2-year treatment period) is “approximately 76%”; in data set [10] (0.01% atropine, children), 59%; in data set [10] (0.1% atropine, children), 68%. Also, the side effects result with progression of myopia [7] (1% atropine) was “photophobia, reduced accommodation amplitude, and blurred vision”. Further, the “retardation of progression of myopia” value in the data set on progression of myopia [8] (0.01% atropine) is reported as 27%; with progression of myopia [8] (0.025% atropine), 43%; with progression of myopia [8] (0.05% atropine) it was 67%. Also, in data set [9], the “long-term effects on development of ocular components and emmetropization” value is “long-term adverse effects”. In data set [10] (0.01% atropine, 5-year follow up study), the long-term suppression effect result is “approximately 30%”. Also, in data set [10] (0.01% atropine, after cessation of treatment), the “drop of the progression rate after cessation of treatment” value is “approximately 30%”. Moreover, the “suppression of the progression of myopia” value in data set [10] (0.5% atropine, children) is given as 75%.
Regarding `COc1ccc2cc3[n+](cc2c1OC)CCc1cc2c(cc1-3)OCO2` [berberine chloride], in data set [5] (diet supplemented with 20 mg/kg), the “interocular difference in refractive error between lens-treated eyes and control eyes” value is -5.15 ± 1.22 D. In addition, the “inhibition (suppression) of myopia” value in [5] (20 mg/kg in diet) is recorded as “approximately 50%”.
For the molecule `Brc1c(NC2=NCCN2)ccc2nccnc12` [brimonidine], the “inhibition of experimentally induced myopia” value in data set [11] was “suppressed myopia”. For the same molecule, the suppression of myopia entry with myopia [12] is given as “suppressed myopia”.
With `Clc1cccc(Cl)c1N=C1NCCN1` [clonidine], the “inhibition of experimentally induced myopia” value in data set [11] is given as “inhibit experimentally induced myopia”.
Regarding `CC(/C=C/C=C(\C)C(=O)O)=C\C=C\C=C(C)\C=C\C=C(/C)C(=O)O` [crocetin], the “outcome of drug screen” value in the data set on mouse model of myopia is recorded as “potential anti-myopia agent”.
Consider `CC(Cc1ccc(O)cc1)NCC(O)c1cc(O)cc(O)c1` (stereo not shown) [fenoterol hydrobromide], for which, in data set [5] (diet supplemented with 1 mg/kg), the “interocular difference in refractive error between lens-treated eyes and control eyes” value is -0.8 ± 1.80 D.
On to `CCCCCCCCc1ccc(CCC(N)(CO)COP(=O)(O)O)cc1` (stereo not shown) [fingolimod phosphate, fingolimod (FTY720) phosphate], for which the “interocular difference in refractive error between lens-treated eyes and control eyes” value in data set [5] (diet supplemented with 0.3 mg/kg) is -0.02 ± 1.58 D.
`N=C(N)NC(=O)Cc1c(Cl)cccc1Cl` [guanfacine]: the “inhibition of experimentally induced myopia” value in [11] is “inhibit experimentally induced myopia”.
In the case of `C[C@@H]1OC(=O)[C@H]2C[C@H]3CCCC[C@@H]3[C@@H](/C=C/[C@H]3CCC[C@H](C)N3C)[C@@H]12` [himbacine], the “inhibition of the development of experimental myopia” value in the data set on experimental myopia was “inhibit the development of experimental myopia”.
For the molecule `CC(C)OC(=O)CCC/C=C\C[C@@H]1[C@@H](CC[C@@H](O)CCc2ccccc2)[C@H](O)C[C@@H]1O` [latanoprost], the “reduction of progression of myopia” value in the data set on progression of myopia [13] is on record as “reduce progression of myopia”.
For `C[C@@H]1CN([C@H]2CC[C@](C#N)(c3ccc(F)cc3)CC2)CC[C@]1(C(=O)O)c1ccccc1` [levocabastine hydrochloride], in data set [5] (diet supplemented with 5 mg/kg), the “interocular difference in refractive error between lens-treated eyes and control eyes” value is reported as “+0.55 ± 2.32 D”.
On to `CN1CCN(CC(=O)N2c3ccccc3C(=O)Nc3cccnc32)CC1` [pirenzepine], for which the “suppression of the progression of myopia” value in [14] (children) is 40%. For the same molecule, in data set [14] (clinical trials eventually discontinued), the side effects result is on record as “serious side effects”. Moreover, the “inhibition of the development of experimental myopia” value in the data set on experimental myopia is recorded as “inhibit the development of experimental myopia”.
`CC(=C\[C@@H](C)C(=O)c1ccc(N(C)C)cc1)/C=C(\C)C(=O)NO` [trichostatin A]: the “interocular difference in refractive error between lens-treated eyes and control eyes” value in data set [5] (diet supplemented with 1 mg/kg) worked out at 0.48 ± 1.46 D. Also, the “inhibition (suppression) of myopia” value in [5] (1 mg/kg in diet) was “more than 100%”.
